In US9790174B2, “Kinase inhibitors” (Respivert Limited, priority 2013, dated 2017):

Tests used:
CYP2C9 = CYP2C9 (Homo sapiens (Human), UniProt P11712); assay: CYP2C9 inhibition studies; type: in vitro ADME
Experimental: Assessment of certain in vitro ADME (absorption, distribution, metabolism, and excretion) parameters for certain compounds of the invention was conducted by BioFocus (Saffron Walden, UK).

[1] = Hydrolytic stability study; type: physicochemical; conditions: DMSO and water (3:1), 1 mg/mL, 60° C.
Experimental: Chemical stability of compounds of the invention was assessed in a mixture of DMSO and water (3:1) at a test compound concentration of 1 mg/mL
Sample Preparation • A 1.0 mg sample of test compound was dissolved in 750 μL of DMSO. Water (250 μL) was added slowly, ensuring no precipitation occurred.
Recording Stability • A 50 μL aliquot of the test solution was removed and analysed in duplicate by 5 μL HPLC injections. The peak area for the test compound was recorded following manual integration of the corresponding UV trace. • The test solution was heated to 60° C., with stirring, and 50 μL aliquots removed for HPLC analysis at 5 and 24 h timepoints.

GSK 3α = GSK 3α (Homo sapiens (Human), UniProt P49840); assay: GSK 3α enzyme inhibition (Z-LYTE FRET, Method 1 / Method 2); type: biochemical; conditions: read-out: IC50 Values for Enzyme Inhibition GSK3α
GSK 3α, sequence (P49840 whole entry): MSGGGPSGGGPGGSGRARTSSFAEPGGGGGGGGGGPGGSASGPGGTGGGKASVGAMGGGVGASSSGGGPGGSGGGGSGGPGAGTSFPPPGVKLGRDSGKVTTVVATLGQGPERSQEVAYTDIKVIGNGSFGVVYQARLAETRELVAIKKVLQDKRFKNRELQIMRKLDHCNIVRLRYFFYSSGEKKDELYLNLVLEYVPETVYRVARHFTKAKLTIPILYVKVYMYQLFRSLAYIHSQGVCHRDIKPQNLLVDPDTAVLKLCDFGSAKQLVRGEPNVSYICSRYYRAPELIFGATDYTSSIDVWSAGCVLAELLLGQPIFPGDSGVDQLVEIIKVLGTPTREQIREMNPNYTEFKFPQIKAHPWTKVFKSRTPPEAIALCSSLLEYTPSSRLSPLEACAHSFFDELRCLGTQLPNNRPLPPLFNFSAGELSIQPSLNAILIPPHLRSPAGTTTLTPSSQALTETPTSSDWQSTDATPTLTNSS
Experimental: The enzyme inhibitory activities of compounds disclosed herein are determined by FRET using synthetic peptides labelled with both donor and acceptor fluorophores (Z-LYTE, Invitrogen Ltd., Paisley, UK).
The following two assay variants can be used for determination of GSK 3α inhibition.
The inhibitory activities of compounds of the invention against the GSK 3α enzyme isoform (Invitrogen), are evaluated by determining the level of activation/phosphorylation of the target peptide. The GSK3-α protein (500 ng/mL, 2.5 μL) is mixed with the test compound (2.5 μL at either 4 μg/mL, 0.4 μg/mL, 0.04 μg/mL, or 0.004 μg/mL) for 2 hr at RT. The FRET peptide (8 μM, 2.5 μL), which is a phosphorylation target for GSK3α, and ATP (40 μM, 2.5 μL) are then added to the enzyme/compound mixture and the resulting mixture incubated for 1 hr. Development reagent (protease, 5 μL) is added for 1 hr prior to detection in a fluorescence microplate reader (Varioskan® Flash, ThermoFisher Scientific).
In all cases, the site-specific protease cleaves non-phosphorylated peptide only and eliminates the FRET signal. Phosphorylation levels of each reaction are calculated using the ratio of coumarin emission (donor) over fluorescein emission (acceptor), for which high ratios indicate high phosphorylation and low ratios indicate low phosphorylation levels. […]

TNBS-induced colitis = TNBS-induced colitis in mice; type: in vivo, BDF1 mice; conditions: conducted over 2 days; oral
Experimental: Non-fasted, 10-12 week old, male BDF1 mice are dosed by oral gavage twice daily with either vehicle (5 mL/kg), reference item (Budesonide 2.5 mg/kg) or test compound (1 or 5 mg/kg) one day before (Day −1) stimulation of the inflammatory response by treatment with 2,4,6-trinitrobenzenesulphonic acid (TNBS) (15 mg/mL in 50% ethanol/50% saline). On Day 0 of the study TNBS (200 μL) is administered intra-colonically via a plastic catheter with BID dosing of the vehicle, reference or test compound continuing for 2 or 4 days. During the study, animals are weighed every day and stool observations are made and recorded as a score, based on stool consistency. At the time of sacrifice on Day 2 (or Day 4), the large intestine is removed and the length and weight recorded. Sections of the colon are taken for histopathology scoring to determine disease severity.

non-mutant kinases = assay: KinomeScan selectivity scores; type: binding; conditions: evidenced by lower selectivity scores
Experimental: These assays may be conducted by DiscoverX (formerly Ambit; San Diego, Calif.). The percentage inhibition produced by incubation with a test compound may be calculated relative to the non-inhibited control.

[2] = test system: intestinal mucosa biopsies from ulcerative colitis patients; assay: Human biopsy assay (cytokine release from intestinal mucosa biopsies); type: cell-based; conditions: 1 μg/mL, 24 hours
Experimental: Intestinal mucosa biopsies are obtained from the inflamed regions of the colons of IBD patients. The biopsy material is cut into small pieces (2-3 mm) and placed on steel grids in an organ culture chamber at 37° C. in a 5% CO2/95% O2 atmosphere in serum-free media. DMSO control or test compounds at the desired concentration are added to the tissue and incubated for 24 hr in the organ culture chamber. The supernatant is harvested for determination of IL-6, IL-8, IL-1β and TNFα levels by R&D ELISA.

[3] = test system: rat, Cynomolgus macaque or human hepatocytes; assay: Analysis of metabolites in hepatocytes; type: in vitro ADME; conditions: 10 μM, 0, 60 and 90 minutes
Experimental: Studies were conducted by BioFocus (Saffron Walden, UK) to determine the metabolic fate of the compound of Example 16 following incubation with rat, Cynomolgus macaque or human hepatocytes.
Separate incubations (n=3) of the compound of Example 16 (10 μM initial concentration) or DMSO control, were performed with cryopreserved hepatocytes from each species (0.5 million cell/mL) at 37° C. for 0, 60 and 90 minutes before termination of reactions and compound extraction with acetonitrile. Sample replicates were pooled prior to analysis.
Potential metabolites were identified using time-of-flight (TOF) and triple quadruple (TQ) mass spectrometers.

[4] = test system: Salmonella typhimurium, strains TA98 and TA100; assay: Mutagenicity assessment (bacterial reverse mutation screen); type: cell-based; conditions: TA98 and TA100, presence or absence of S-9 mix
Experimental: Studies were conducted by Sequani (Ledbury, Herefordshire, UK) to assess compounds of the invention for their ability to induce mutations in two histidine dependent auxotrophic mutants of Salmonella typhimurium, strains TA98 and TA100 in vitro.
The mutation screen was conducted using the plate incorporation method and was performed in both the presence and absence of S-9 mix (a liver post-mitochondrial fraction derived from the livers of Aroclor 1254 treated rats). The bacteria were exposed to test compounds dissolved in dimethylsulphoxide, which solvent was also used as the negative control. The dose levels used were 0.32, 1.6, 8, 40, 200, 1000 or 5000 μg/plate.

B-Raf (V600E) = B-Raf (V600E) (Homo sapiens (Human), UniProt P15056, V600E); assay: KINOMEscan binding of kinase to standard ligand
B-Raf (V600E), sequence (P15056 whole entry V600E): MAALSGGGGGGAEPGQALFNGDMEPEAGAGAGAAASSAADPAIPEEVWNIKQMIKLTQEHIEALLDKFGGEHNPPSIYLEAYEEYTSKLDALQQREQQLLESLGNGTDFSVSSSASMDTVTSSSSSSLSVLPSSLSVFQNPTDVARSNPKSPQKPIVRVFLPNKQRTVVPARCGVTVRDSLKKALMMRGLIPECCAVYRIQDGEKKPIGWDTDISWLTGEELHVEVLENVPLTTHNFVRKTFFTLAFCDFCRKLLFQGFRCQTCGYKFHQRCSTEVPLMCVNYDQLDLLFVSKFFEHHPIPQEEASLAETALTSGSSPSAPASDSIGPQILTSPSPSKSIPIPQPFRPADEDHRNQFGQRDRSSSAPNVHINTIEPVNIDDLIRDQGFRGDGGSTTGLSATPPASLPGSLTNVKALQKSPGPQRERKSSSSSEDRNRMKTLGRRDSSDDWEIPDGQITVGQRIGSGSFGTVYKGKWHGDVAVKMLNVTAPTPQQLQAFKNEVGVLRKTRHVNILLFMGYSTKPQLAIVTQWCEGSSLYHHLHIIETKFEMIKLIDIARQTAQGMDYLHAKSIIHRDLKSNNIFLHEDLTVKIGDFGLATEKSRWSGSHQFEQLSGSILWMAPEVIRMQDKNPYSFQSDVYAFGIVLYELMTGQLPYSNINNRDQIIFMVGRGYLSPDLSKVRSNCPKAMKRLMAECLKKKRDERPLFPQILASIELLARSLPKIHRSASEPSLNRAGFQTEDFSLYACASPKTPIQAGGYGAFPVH
Experimental: (§1) Kinase enzyme binding activities of compounds disclosed herein may be determined using a proprietary assay which measures active site-directed competition binding to an immobilized ligand (Fabian, M. A. et al., Nature Biotechnol., 2005, 23:329-336). These assays may be conducted by DiscoverX (formerly Ambit; San Diego, Calif.). The percentage inhibition produced by incubation with a test compound may be calculated relative to the non-inhibited control.

B-Raf = B-Raf (Homo sapiens (Human), UniProt P15056); assay: KINOMEscan binding of kinase to standard ligand
B-Raf, sequence (P15056 whole entry): as the sequence (P15056 whole entry V600E) above, with E600V counted along it
Experimental: as §1

[5] = test system: adoptive transfer colitis; assay: Adoptive transfer in mice; type: in vivo, SCID mice
Experimental: On Study day 0, female Balb/C mice are terminated and spleens obtained for CD45RB^high cell isolation (Using SCID IBD cell Separation protocol). Approximately 4×10^5 cells/mL CD45RB^high cells are then injected intraperitoneally (100 μL/mouse) into female SCID animals. On study day 14, mice are weighed and randomized into treatment groups based on body weight. On Day 14, compounds are administered BID, via oral gavage, in a peanut oil vehicle at the dose levels outlined below in Tables 6a and 6b and a dose volume of 5 mL/kg. Treatment continues until study day 42, at which point the animals are necropsied 4 hours after the morning administration. The colon length and weight are recorded and used as a secondary endpoint in the study as a measurement of colon oedema. The colon is then divided into six cross-sections, four of which are used for histopathology scoring (primary endpoint) and two are homogenised for cytokine analysis. Data shown is the % inhibition of the induction window between nave animals and vehicle animals, where higher inhibition implies closer to the non-diseased, nave, phenotype.

CYP2C9, sequence (P11712 whole entry): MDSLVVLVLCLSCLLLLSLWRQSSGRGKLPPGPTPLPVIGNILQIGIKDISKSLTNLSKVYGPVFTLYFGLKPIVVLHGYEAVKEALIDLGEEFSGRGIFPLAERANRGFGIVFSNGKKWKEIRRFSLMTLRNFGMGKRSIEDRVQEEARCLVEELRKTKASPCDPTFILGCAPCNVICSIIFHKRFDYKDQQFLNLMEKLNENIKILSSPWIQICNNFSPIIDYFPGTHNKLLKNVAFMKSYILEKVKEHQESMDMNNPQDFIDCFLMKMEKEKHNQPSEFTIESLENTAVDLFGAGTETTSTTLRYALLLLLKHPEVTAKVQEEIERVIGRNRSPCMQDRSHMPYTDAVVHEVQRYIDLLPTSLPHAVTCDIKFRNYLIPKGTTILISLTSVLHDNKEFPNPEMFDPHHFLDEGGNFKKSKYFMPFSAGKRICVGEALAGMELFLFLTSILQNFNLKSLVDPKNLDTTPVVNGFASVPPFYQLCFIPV

## C#CC(C)(C)c1cc(NC(=O)Nc2ccc(Oc3ccnc(Nc4cc(C)c5[nH]ncc5c4)n3)c3ccccc23)n(-c2ccc(C)cc2)n1 [Ref Cpd A]
CYP2C9; CYP2C9, 0 min preincubation
  % Inh (inhibition at 5 μM reported instead): 31^[†] %
CYP2C9; CYP2C9, 30 min preincubation
  % Inh (inhibition at 5 μM reported instead): 66^[†] %

## C#Cc1cc(Nc2nccc(Oc3ccc(NC(=O)Nc4cc(C(C)C)nn4-c4ccc(C)cc4)c4ccccc34)n2)cc(C(=O)NCCN2CCOCC2)c1 [Reference Compound B, 3-ethynyl-5-((4-((4-(3-(3-isopropyl-1-(p-tolyl)-1H-pyrazol-5-yl)ureido)naphthalen-1-yl)oxy)pyrimidin-2-yl)amino)-N-(2-morpholinoethyl)benzamide]
[1]
  decomposition: underwent substantial decomposition

## COc1cc(Nc2cc(Oc3ccc(NC(=O)Nc4cc(C(C)(C)C)cc(NS(C)(=O)=O)c4OC)c4ccccc34)ccn2)cc(C(=O)NCCN2CCNCC2)c1 [Example 85(q)]
GSK 3α
  IC50: 249 nM

## C#Cc1cc(Nc2nccc(Oc3ccc(NC(=O)Nc4cc(C(C)(C)C)cc(NS(C)(=O)=O)c4OC)c4ccccc34)n2)cc(C(=O)NCCOCCOCCOC)c1 [Example 16, 3-((4-((4-(3-(5-(tert-Butyl)-2-methoxy-3-(methylsulfonamido)phenyl)ureido)naphthalen-1-yl)oxy)pyrimidin-2-yl)amino)-5-ethynyl-N-(2-(2-(2-methoxyethoxy)ethoxy)ethyl)benzamide]
TNBS-induced colitis
  activity in TNBS model of colonic inflammation (histopathology analysis): displayed substantial activity
non-mutant kinases
  selectivity compared to the Reference Compound: substantially improved selectivities
[2]
  cytokine (IL-1β, IL-6 and IL-8) release compared to the DMSO control: significantly inhibited
[3]
  metabolism at the naphthalene moiety: no products were noted that could be connected to metabolism at the naphthalene moiety
  number of metabolites resulting from oxidation on the polyethylene glycol chain of the amide moiety: 8
[4]
  increases in revertant colonies: no dose-related or statistically significant increases in revertant colonies
B-Raf (V600E)
  effect on the binding of B-Raf (V600E) to its standard ligand: did not have any significant effect
B-Raf
  effect on the binding of B-Raf to its standard ligand: did not have any significant effect
[5]; adoptive transfer
  activity in T cell driven model of colonic inflammation (ratios of colon weight to length): displayed significant activity
[5]; adoptive transfer model
  levels of pro-inflammatory cytokines in samples of colon tissue: significantly reduced levels of pro-inflammatory cytokines
